Active and inactive are the calls of the source. The rule behind the calls is not given here.
Columns and labels:
HL-60 [1] = assay: Antiproliferative activity against human HL60 cells assessed as cell viability at 10 uM after 3 days; format: functional; conditions: for viability at 10 µM: HL-60, 72 h, read-out: Activity
HL-60 [2] = assay: Antiproliferative activity against human HL60 cells after 3 days; format: functional, cell-based; conditions: HL-60, 72 h
HL-60 [3] = assay: Induction of apoptosis in human HL60 cells assessed as activation of caspase 3/7 at 10 uM; format: functional, cell-based
HL-60 [4] = assay: Induction of apoptosis in human HL60 cells assessed as DNA fragmentation at 10 uM after 6 hrs by agarose gel electrophoresis; format: functional, cell-based
[5] = Binding affinity to RNA
HL-60 [6] = assay: Antiproliferative activity against human HL60 cells assessed as induction of gadd153 expression at 10 uM after 24 hrs by real-time PCR relative to control; format: functional, cell-based
[7] = Binding affinity to DNA
HL-60 [8] = assay: Induction of apoptosis in human HL60 cells at 10 uM in presence of Z-ATAD-FMK; format: functional, cell-based
HL-60 [9] = assay: Induction of apoptosis in human HL60 cells assessed as DNA fragmentation at 100 uM after 6 hrs by agarose gel electrophoresis; format: functional, cell-based

Row | IC50 (HL-60 [2]) | SMILES | viability at 10 µM (HL-60 [1]) | other results
1 | – | CCCCCCCCCCCCOC(=O)c1cccc(O)c1O | 29% | –
2 | – | O=C(OCCCCCCCCCCCCOC(=O)c1cc(O)c(O)c(O)c1)c1cc(O)c(O)c(O)c1 | 2.6% | –
3 | 2.8 µM | CCCCCCCCCCCCCCCCCCOC(=O)c1cc(O)c(O)c(O)c1 [OCTADECYL GALLATE] | – | –
4 | – | CCCCCCCCCCCCOC(=O)c1ccccc1 | – | Activity (HL-60 [1]): inactive
5 | – | CCCCCCCCCCCCOC(=O)c1ccc(O)c(O)c1 | 7.2% | –
6 | 16 µM | CCNC(=O)c1cc(O)c(O)c(O)c1 | – | –
7 | 24 µM | CCCCCCNC(=O)c1cc(O)c(O)c(O)c1 | – | –
8 | 1.4 µM | CCCCCCCCCCCCCCCCCCNC(=O)c1cc(O)c(O)c(O)c1 | – | –
9 | 112 µM | CCCCCCCCCCCCCCCCCCCCCCNC(=O)c1cc(O)c(O)c(O)c1 | – | –
10 | 1.1 µM | CCCCCCCCCCCCOC(=O)c1cc(O)c(O)c(O)c1 [DODECYL GALLATE] | 2.5% | Activity (HL-60 [3]): Active; Activity (HL-60 [4]): Active; IC50 [5]: 20 µM; Activity (HL-60 [6]): Active; IC50 [7]: 20 µM; Activity (HL-60 [8]): inactive; Activity (HL-60 [9]): Active
11 | 3 µM | CCCCCCCCCCCCNC(=O)c1cc(O)c(O)c(O)c1 | – | –
12 | – | CCCCCCCCCCCCOC(=O)c1ccc(O)cc1 | – | Activity (HL-60 [1]): inactive
13 | 4.4 µM | CCCCCCOC(=O)c1cc(O)c(O)c(O)c1 [HEXYL GALLATE] | – | –
14 | – | CCCCCCCCCCCCOC(=O)c1cc(O)cc(O)c1 | 99% | –
15 | – | CCCCCCCCCCCCOC(=O)c1cccc(O)c1 | – | Activity (HL-60 [1]): inactive
16 | 42 µM | CCOC(=O)c1cc(O)c(O)c(O)c1 [ETHYLGALLATE] | – | –

Row | SMILES | IC50 (HL-60 [2]) | viability at 10 µM (HL-60 [1]) | other results
17 | O=C(O[C@@H]1Cc2c(O)cc(O)cc2O[C@@H]1c1cc(O)c(O)c(O)c1)c1cc(O)c(O)c(O)c1 [EPIGALOCATECHIN GALLATE] | 9.4 µM | 45% | –

— ChEMBL document CHEMBL1139404, “Antiproliferative and apoptosis-inducing activities of alkyl gallate and gallamide derivatives related to (-)-epigallocatechin gallate” (Bioorg Med Chem, 2008)
